PubChem BioAssay AID2060512 (Molecular Pharmacology Branch, DTP, NCI, 2025)

Test system: 186277-243-T-J2-PDC complex spheroid viability
Experiment: Anticancer human tumor 186277-243-T-J2-PDC patient-derived colon adenocarcinoma cell line growth inhibition [GQUAD]
Details: for IC50: curve of first compound; for viability, T/C: stronger effect = lower value
Method in brief: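 Viability of tumor cells grown as complex spheroids with endothelial and stromal cells, exposed to drug combinations. Top concentration at or near clinical Cmax (else 10 microM), diluted in half-log increments.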

[1] = second compound 0.0316 µM, first compound 0.000999 µM
[2] = second compound 0.0316 µM, first compound 0.00316 µM
[3] = second compound 0.0316 µM, first compound 0.00999 µM
[4] = second compound 0.0316 µM, first compound 0.0316 µM
[5] = second compound 0.0316 µM, first compound 0.0999 µM
[6] = second compound 0.0316 µM, first compound 0.316 µM
[7] = second compound 0.1 µM, first compound 0.000999 µM
[8] = second compound 0.1 µM, first compound 0.00316 µM
[9] = second compound 0.1 µM, first compound 0.00999 µM
[10] = second compound 0.1 µM, first compound 0.0316 µM
[11] = second compound 0.1 µM, first compound 0.0999 µM
[12] = second compound 0.1 µM, first compound 0.316 µM
[13] = second compound 0.316 µM, first compound 0.000999 µM
[14] = second compound 0.316 µM, first compound 0.00316 µM
[15] = second compound 0.316 µM, first compound 0.00999 µM
[16] = second compound 0.316 µM, first compound 0.0316 µM
[17] = second compound 0.316 µM, first compound 0.0999 µM
[18] = second compound 0.316 µM, first compound 0.316 µM
[19] = second compound 1 µM, first compound 0.000999 µM
[20] = second compound 1 µM, first compound 0.00316 µM
[21] = second compound 1 µM, first compound 0.00999 µM
[22] = second compound 1 µM, first compound 0.0316 µM
[23] = second compound 1 µM, first compound 0.0999 µM
[24] = second compound 1 µM, first compound 0.316 µM
[25] = second compound 3.16 µM, first compound 0.000999 µM
[26] = second compound 3.16 µM, first compound 0.00316 µM
[27] = second compound 3.16 µM, first compound 0.00999 µM
[28] = second compound 3.16 µM, first compound 0.0316 µM
[29] = second compound 3.16 µM, first compound 0.0999 µM
[30] = second compound 3.16 µM, first compound 0.316 µM
[31] = second compound 10 µM, first compound 0.000999 µM
[32] = second compound 10 µM, first compound 0.00316 µM
[33] = second compound 10 µM, first compound 0.00999 µM
[34] = second compound 10 µM, first compound 0.0316 µM
[35] = second compound 10 µM, first compound 0.0999 µM
[36] = second compound 10 µM, first compound 0.316 µM
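Throughout, for viability, T/C: 100% = DMSO vehicle control viability.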

For `CC[C@@]1(O)C(=O)OCc2c1cc1n(c2=O)Cc2cc3c(CN(C)C)c(O)ccc3nc2-1` + CN(C)c1ccc(Nc2c3ccc(NC(=O)CCN4CCCC4)cc3nc3cc(NC(=O)CCN4CCCC4)ccc23)cc1, the IC50 (second compound 0.0316 µM) was greater than 316 nM, the IC50 (second compound 0.1 µM) was 153 nM and the IC50 (second compound 0.316 µM) was 178 nM. The IC50 (second compound 1 µM) was 206 nM, the IC50 (second compound 3.16 µM) was 209 nM and the IC50 (second compound 10 µM) was 252 nM. It also gave a viability, T/C [1] of 91.1%, a viability, T/C [2] of 115% and a viability, T/C [3] of 99.2%. It also gave a viability, T/C [4] of 88.3%, a viability, T/C [5] of 54.4% and a viability, T/C [6] of 50.1%. For the same molecule, the viability, T/C [7] was 91.5%, the viability, T/C [8] was 104% and the viability, T/C [9] was 92.5%. It also gave a viability, T/C [10] of 70.9%, a viability, T/C [11] of 61.1% and a viability, T/C [12] of 36.9%. The viability, T/C [13] was 93.9%, the viability, T/C [14] was 102% and the viability, T/C [15] was 95.6%. For the same molecule, the viability, T/C [16] was 81.4%, the viability, T/C [17] was 59.4% and the viability, T/C [18] was 41.2%. It also gave a viability, T/C [19] of 86.5%, a viability, T/C [20] of 81.7% and a viability, T/C [21] of 87.1%. For the same molecule, the viability, T/C [22] was 72%, the viability, T/C [23] was 65.6% and the viability, T/C [24] was 41.2%. It also gave a viability, T/C [25] of 96.8%, a viability, T/C [26] of 99.5% and a viability, T/C [27] of 105%. For the same molecule, the viability, T/C [28] was 74.4%, the viability, T/C [29] was 65.2% and the viability, T/C [30] was 42.5%. The viability, T/C [31] was 93.8%, the viability, T/C [32] was 85.7% and the viability, T/C [33] was 98%. The viability, T/C [34] was 85.1%, the viability, T/C [35] was 58.3% and the viability, T/C [36] was 47.9%.
`CCc1c2c(nc3ccc(O)cc13)-c1cc3c(c(=O)n1C2)COC(=O)[C@]3(O)CC` + CN(C)c1ccc(Nc2c3ccc(NC(=O)CCN4CCCC4)cc3nc3cc(NC(=O)CCN4CCCC4)ccc23)cc1 was tested, and the IC50 (second compound 0.0316 µM) was 5.9 nM, the IC50 (second compound 0.1 µM) was 6.26 nM and the IC50 (second compound 0.316 µM) was 6.31 nM. For the same molecule, the IC50 (second compound 1 µM) was 5.78 nM, the IC50 (second compound 3.16 µM) was 7.75 nM and the IC50 (second compound 10 µM) was 7.5 nM. The viability, T/C [1] was 97.1%, the viability, T/C [2] was 62.1% and the viability, T/C [3] was 40.6%. For the same molecule, the viability, T/C [4] was 23.8%, the viability, T/C [5] was 17.1% and the viability, T/C [6] was 13.1%. It also gave a viability, T/C [7] of 99.8%, a viability, T/C [8] of 60.1% and a viability, T/C [9] of 44.3%. It also gave a viability, T/C [10] of 25.8%, a viability, T/C [11] of 15.8% and a viability, T/C [12] of 11.6%. For the same molecule, the viability, T/C [13] was 107%, the viability, T/C [14] was 69% and the viability, T/C [15] was 36%. The viability, T/C [16] was 23.7%, the viability, T/C [17] was 15.7% and the viability, T/C [18] was 11.1%. It also gave a viability, T/C [19] of 82.9%, a viability, T/C [20] of 59.7% and a viability, T/C [21] of 41.6%. For the same molecule, the viability, T/C [22] was 25.4%, the viability, T/C [23] was 15.8% and the viability, T/C [24] was 10.4%. For the same molecule, the viability, T/C [25] was 92.8%, the viability, T/C [26] was 63.4% and the viability, T/C [27] was 49.4%. The viability, T/C [28] was 27.1%, the viability, T/C [29] was 16.3% and the viability, T/C [30] was 8.68%. It also gave a viability, T/C [31] of 83%, a viability, T/C [32] of 63.1% and a viability, T/C [33] of 45.5%. The viability, T/C [34] was 31.4%, the viability, T/C [35] was 16.4% and the viability, T/C [36] was 9.38%.
